How the values were obtained:
[1] = target: T1, IRAK4 (Homo sapiens, UniProt Q9NWZ3); assay: HiBiT-based intracellular degradation assay of THP1-HIBiT-IRAK4 cells; assay type: cell-based; details: half-maximal degradation concentration of IRAK4 protein, 24 h incubation
T1 construct: expressed in transfected cells; host or cells: THP1 (THP1-HIBiT-IRAK4 engineered line)
T1 sequence (Q9NWZ3 1-460): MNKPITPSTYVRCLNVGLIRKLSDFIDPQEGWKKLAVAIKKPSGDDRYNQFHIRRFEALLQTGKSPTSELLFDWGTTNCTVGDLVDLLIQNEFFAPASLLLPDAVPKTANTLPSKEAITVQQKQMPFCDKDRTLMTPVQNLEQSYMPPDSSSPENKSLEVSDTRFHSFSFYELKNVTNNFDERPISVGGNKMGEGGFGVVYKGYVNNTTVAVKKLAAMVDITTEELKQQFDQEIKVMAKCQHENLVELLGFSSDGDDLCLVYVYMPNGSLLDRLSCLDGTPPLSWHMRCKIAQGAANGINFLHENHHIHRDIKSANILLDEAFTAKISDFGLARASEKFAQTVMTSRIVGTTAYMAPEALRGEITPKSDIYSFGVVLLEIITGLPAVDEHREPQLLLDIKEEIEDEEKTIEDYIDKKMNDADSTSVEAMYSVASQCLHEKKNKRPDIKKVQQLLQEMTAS
Description: HiBiT-based intracellular degradation assay of THP1-HIBiT-IRAK4 cells
THP1-HIBiT-IRAK4 cells were cultured in RPMI 1640 medium supplemented with 10% fetal bovine serum (FBS) and 1% penicillin-streptomycin (PS) (37°C and 5% CO2). The THP1-HIBiT-IRAK4 cells were inoculated in a 384-well plate at 5000 cells/40 µL/well. Compound solutions with different concentrations were added at 40 nL/well and incubated for 24 h at 37°C in 5% CO2. HiBiT lysis detection reagents were added to the wells, the plate was incubated for 30 min at room temperature, and luminescence values were read on Envision. [formula]
The DC50 (half-maximal degradation concentration) of each compound was obtained using XLfit software and the following nonlinear fitting equation: Y = bottom + (top−bottom)/(1+10^(∧)((LogDC50−X)×Hillslope)). [formula]
X denotes a log value of the compound concentration.
Y denotes the degradation rate.
Table 1 lists the results of DC50 values of IRAK4 protein degradation. […]

[2] = In vivo pharmacokinetic study in mice; details: male CD1 mice
Description: In vivo pharmacokinetic study
The pharmacokinetic behaviors of Example 1 and Example 15 in mice were studied using the following experimental protocol to evaluate their pharmacokinetic characteristics.
The mice had free access to food and water before the test.
(§1) Approximately 0.03 mL of venous blood was collected from the dorsal metatarsal vein of each mouse separately after 0.033 h, 0.083 h, 0.25 h, 0.5 h, 1 h, 2 h, 4 h, 8 h, and 24 h since intravenous injection. The blood was placed in an EDTA-K2 tube and centrifuged for 5 min at 4000 g and 4°C. The plasma was separated. The concentration of the compound in the plasma was determined through liquid chromatography-tandem mass spectrometry.
as §1, with “after” for “after 0.033 h,”, “oral administration.” for “intravenous injection.”

[3] = mouse, plasma, Intravenous Injection (2 mg/kg)

| DC50 [1] [nM] | SMILES | further results |
| --- | --- | --- |
| 4.29 | CC(C)(O)c1cc2nc(C3CCN(CCC4CCN(c5ccc6c(c5)C(=O)N(C5CCC(=O)NC5=O)C6=O)CC4)CC3)cn2cc1NC(=O)c1cccc(C(F)(F)F)n1 (stereo not shown) [Example 18, N-(2-(1-(2-(1-(2-(2,6-dioxopiperidin-3-yl)-1,3-dioxoisoindolin-5-yl)piperidin-4-yl)ethyl)piperidin-4-yl)-7-(2-hydroxypropan-2-yl)imidazo[1,2-a]pyridin-6-yl)-6-(trifluoromethyl)pyridine-2-carboxamide] | – |
| 1.95 | CC(C)(O)c1cc2nc(C3CCN(CCCN4CCN(c5ccc6c(c5)C(=O)N(C5CCC(=O)NC5=O)C6=O)CC4)CC3)cn2cc1NC(=O)c1cccc(C(F)(F)F)n1 (stereo not shown) [Example 19, N-(2-(1-(3-(4-(2-(2,6-dioxopiperidin-3-yl)-1,3-dioxoisoindolin-5-yl)piperazin-1-yl)propyl)piperidin-4-yl)-7-(2-hydroxypropan-2-yl)imidazo[1,2-a]pyridin-6-yl)-6-(trifluoromethyl)pyridine-2-carboxamide] | – |
| 1.35 | CC(C)(O)c1cc2nc(C3CCN(C4CN(C5CCN(c6ccc7c(c6)C(=O)N(C6CCC(=O)NC6=O)C7=O)CC5)C4)CC3)cn2cc1NC(=O)c1cccc(C(F)(F)F)n1 (stereo not shown) [Example 20, N-(2-(1-(1-(1-(2-(2,6-dioxopiperidin-3-yl)-1,3-dioxoisoindolin-5-yl)piperidin-4-yl)azetidin-3-yl)piperidin-4-yl)-7-(2-hydroxypropan-2-yl)imidazo[1,2-a]pyridin-6-yl)-6-(trifluoromethyl)pyridine-2-carboxamide] | – |
| 2.3 | CC(C)(O)c1cc2nc(C3CCN(CCN4CC5(C4)CN(c4ccc6c(c4)C(=O)N(C4CCC(=O)NC4=O)C6=O)C5)CC3)cn2cc1NC(=O)c1cccc(C(F)(F)F)n1 (stereo not shown) [Example 21, N-(2-(1-(2-(6-(2-(2,6-dioxopiperidin-3-yl)-1,3-dioxoisoindolin-5-yl)-2,6-diazaspiro[3.3]heptan-2-yl)ethyl)piperidin-4-yl)-7-(2-hydroxypropan-2-yl)imidazo[1,2-a]pyridin-6-yl)-6-(trifluoromethyl)pyridine-2-carboxamide] | – |
| 4.76 | CC(C)(O)c1cc2nc(C3CCN(CCN4CCN(c5cc6c(cc5F)C(=O)N(C5CCC(=O)NC5=O)C6=O)CC4)CC3)cn2cc1NC(=O)c1cccc(C(F)(F)F)n1 (stereo not shown) [Example 22, N-(2-(1-(2-(4-(2-(2,6-dioxopiperidin-3-yl)-6-fluoro-1,3-dioxoisoindolin-5-yl)piperazin-1-yl)ethyl)piperidin-4-yl)-7-(2-hydroxypropan-2-yl)imidazo[1,2-a]pyridin-6-yl)-6-(trifluoromethyl)pyridine-2-carboxamide] | – |
| 1.87 | CC(C)(O)c1cc2nc(C3CCN(CC4C5CN(c6ccc7c(c6)C(=O)N(C6CCC(=O)NC6=O)C7=O)CC45)CC3)cn2cc1NC(=O)c1cccc(C(F)(F)F)n1 (stereo not shown) [Example 24, N-(2-(1-((3-(2-(2,6-dioxopiperidin-3-yl)-1,3-dioxoisoindolin-5-yl)-3-azabicyclo[3.1.0]hexan-6-yl)methyl)piperidin-4-yl)-7-(2-hydroxypropan-2-yl)imidazo[1,2-a]pyridin-6-yl)-6-(trifluoromethyl)pyridine-2-carboxamide] | – |
| 12.8 | CC(C)(O)c1cc2nc(C3CCN(CC4CCN(c5cc6c(cc5F)C(=O)N([C@@H]5CCC(=O)NC5=O)C6=O)CC4)CC3)cn2cc1NC(=O)c1cccc(C(F)(F)F)n1 [Example 25, (R)-N-(2-(1-((1-(2-(2,6-dioxopiperidin-3-yl)-6-fluoro-1,3-dioxoisoindolin-5-yl)piperidin-4-yl)methyl)piperidin-4-yl)-7-(2-hydroxypropan-2-yl)imidazo[1,2-a]pyridin-6-yl)-6-(trifluoromethyl)pyridine-2-carboxamide] | – |
| 2.15 | CC(C)(O)c1cc2nc(C3CCN(CC4CCN(c5cc6c(cc5F)C(=O)N([C@H]5CCC(=O)NC5=O)C6=O)CC4)CC3)cn2cc1NC(=O)c1cccc(C(F)(F)F)n1 [Example 26, (S)-N-(2-(1-((1-(2-(2,6-dioxopiperidin-3-yl)-6-fluoro-1,3-dioxoisoindolin-5-yl)piperidin-4-yl)methyl)piperidin-4-yl)-7-(2-hydroxypropan-2-yl)imidazo[1,2-a]pyridin-6-yl)-6-(trifluoromethyl)pyridine-2-carboxamide] | – |

| SMILES | DC50 [1] [nM] | further results |
| --- | --- | --- |
| CC(C)(O)c1cc2nc(C3CCN(CC4CCN(c5ccc6c(c5)C(=O)N(C5CCC(=O)NC5=O)C6=O)CC4)CC3)cn2cc1NC(=O)c1cccc(C(F)(F)F)n1 (stereo not shown) [Example 1] | 4.53 | F ([2]; oral bioavailability, Oral Administration (20 mg/kg) vs Intravenous Injection (2 mg/kg)): 12.1%; clearance [2, 3]: 59.5 mL/min/kg; half-life [2, 3]: 7.88 h; half-life ([2]; mouse, plasma, Oral Administration (20 mg/kg)): 6.81 h; AUC(0-t) ([2]; mouse, Intravenous Injection (2 mg/kg), plasma): 550 ng·h/mL; AUC(0-t) ([2]; mouse, Oral Administration (20 mg/kg), plasma): 626 ng·h/mL |
| CC(C)(O)c1cc2nc(C3CCN(CC4CCN(c5cc6c(cc5F)C(=O)N(C5CCC(=O)NC5=O)C6)CC4)CC3)cn2cc1NC(=O)c1cccc(C(F)(F)F)n1 (stereo not shown) [Example 23, N-(2-(1-((1-(2-(2,6-dioxopiperidin-3-yl)-6-fluoro-1-oxoisoindolin-5-yl)piperidin-4-yl)methyl)piperidin-4-yl)-7-(2-hydroxypropan-2-yl)imidazo[1,2-a]pyridin-6-yl)-6-(trifluoromethyl) pyridine-2-carboxamide] | 0.95 | – |
